Measurements as given in US20180066070A1, “ACETYLATED PCSK9” (UNIVERSITAT ZURICH, priority 2015, published 2018).

Tests used:
[1] = target: T1, SIRT1 (Homo sapiens, UniProt Q96EB6); assay: Fluorogenic peptide deacetylation assay; type: biochemical; details: increasing concentrations of SRT1720 (1 μM, 10 μM, 100 μM, 1 mM), 1 μg SIRT1, acetyl-Lys421 PCSK9-AMC peptide, compared to negative and positive controls (FIG. 4)
T1 sequence (Q96EB6 1-747): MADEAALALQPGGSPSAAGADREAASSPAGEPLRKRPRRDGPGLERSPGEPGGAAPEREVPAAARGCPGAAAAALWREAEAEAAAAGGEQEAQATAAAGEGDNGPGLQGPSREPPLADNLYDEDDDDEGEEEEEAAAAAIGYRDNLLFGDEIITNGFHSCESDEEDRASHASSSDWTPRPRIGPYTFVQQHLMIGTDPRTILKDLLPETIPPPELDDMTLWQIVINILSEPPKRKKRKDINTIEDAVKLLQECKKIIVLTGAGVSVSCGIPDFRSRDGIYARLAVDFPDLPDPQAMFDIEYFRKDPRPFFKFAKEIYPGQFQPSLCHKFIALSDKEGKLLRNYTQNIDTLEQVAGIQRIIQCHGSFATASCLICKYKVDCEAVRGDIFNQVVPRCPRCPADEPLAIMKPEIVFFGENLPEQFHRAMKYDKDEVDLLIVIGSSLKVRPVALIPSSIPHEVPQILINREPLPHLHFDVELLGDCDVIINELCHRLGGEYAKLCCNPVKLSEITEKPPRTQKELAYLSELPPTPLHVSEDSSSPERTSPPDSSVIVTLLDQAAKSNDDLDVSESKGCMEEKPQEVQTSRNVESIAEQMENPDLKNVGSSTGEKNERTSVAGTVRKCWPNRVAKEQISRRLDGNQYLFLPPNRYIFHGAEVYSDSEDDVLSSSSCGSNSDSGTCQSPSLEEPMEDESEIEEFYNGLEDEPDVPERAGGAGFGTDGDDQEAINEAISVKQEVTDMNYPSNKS
Description: To analyse the deacetylation activity of SIRT1 on PCSK9, an acetylated PCSK9 peptide was designed with acetylated lysine 421 (Lys421)-tagged to an AMC fluorophore. The acetyl-PCSK9-AMC peptide was dissolved in DMSO and incubated with 1 μg SIRT1 with 1 μM, 10 μM, 100 μM and 1 mM SIRT1 activator SRT1720 in the deacetylation assay buffer containing 50 mM Tris-HCl [pH8.0], 1 mM MgCl2, 125 mM NaCl, 2.5 mM potassium chloride and 500 μM NAD+. Reactions were allowed to proceed for an incubation period of 1 hr at 37° C. Prior to quenching the reaction, 2 mM nicotinamide was added to 1× developing buffer (BML-KI176-1250, Enzo Lifesciences) in the deacetylation assay buffer (50 mM Tris-HCl [pH8.0], 1 mM MgCl2, 125 mM NaCl, 2.5 mM potassium chloride). At each time point, 50 μL of the reaction was removed and mixed with 50 μL of the developer solution. The quenched samples were kept at 37° C. for 45 min prior to fluorescence reading. The release of the fluorescent AMC was measured using a Tecan M200 PRO fluorometric plate reader with an excitation 360 nm and detection of emitted light in the range of […]. All reactions were normalized to control reactions in the absence of β-NAD (Ffinal=F+NAD−F-NAD).

[2] = target: T2, SIRT1 (Mus musculus, UniProt Q923E4); details: ApoE-/- mice; cited from earlier work
T2 construct: host or cells: ApoE-/- mice (endogenous protein of the animal)
T2 sequence (Q923E4 1-737): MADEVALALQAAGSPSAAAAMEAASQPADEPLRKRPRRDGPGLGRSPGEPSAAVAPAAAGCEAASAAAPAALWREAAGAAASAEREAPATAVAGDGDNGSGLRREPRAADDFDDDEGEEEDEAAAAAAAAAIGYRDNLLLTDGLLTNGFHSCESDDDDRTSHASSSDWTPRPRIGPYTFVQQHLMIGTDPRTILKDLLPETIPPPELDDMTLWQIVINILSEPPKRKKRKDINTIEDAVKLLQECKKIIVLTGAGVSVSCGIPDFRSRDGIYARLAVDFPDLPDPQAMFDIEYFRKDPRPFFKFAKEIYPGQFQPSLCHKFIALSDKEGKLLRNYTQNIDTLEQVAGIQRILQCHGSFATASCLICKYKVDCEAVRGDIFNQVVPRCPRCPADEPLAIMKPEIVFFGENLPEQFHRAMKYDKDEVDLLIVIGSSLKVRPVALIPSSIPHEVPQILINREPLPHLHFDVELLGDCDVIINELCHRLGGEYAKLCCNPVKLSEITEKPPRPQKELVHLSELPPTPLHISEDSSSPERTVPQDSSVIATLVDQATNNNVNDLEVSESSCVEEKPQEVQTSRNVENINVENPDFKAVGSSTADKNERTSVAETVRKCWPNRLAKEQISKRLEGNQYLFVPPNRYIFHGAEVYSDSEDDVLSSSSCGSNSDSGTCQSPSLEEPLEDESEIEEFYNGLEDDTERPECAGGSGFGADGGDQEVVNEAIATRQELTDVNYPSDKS

[3] = system: RAW 264.7 macrophages; assay: Activity of acetylated vs deacetylated recombinant PCSK9 on RAW 264.7 macrophages (western blot for LDLR, PCSK9); type: cell-based, murine; details: recombinant PCSK9 pretreated with pCAF and acetyl-CoA vs SIRT1 and NAD+, 15 mins (FIG. 7)
Description: Recombinant PCSK9 pretreated with SIRT1 and NAD+ or pCAF and acetyl-CoA were added on RAW 264.7 macrophages for 15 mins and lysed, separated by SDS-PAGE and blotted for LDLR, PCSK9 and b-actin. Representative bar graphs of LDLR, PCSK9 normalized to b-actin and PCSK9 expression normalized to LDLR expression.
Human HepG2 hepatocytes (American Type Culture Collection, Manassas, Va.) and murine RAW 264.7 cells (Mouse leukaemic monocyte macrophage cell line) were cultured in DMEM containing 10% fetal bovine serum (v/v). AML12 mouse hepatoma cells were cultured in a 1:1 (v/v) mixture of DMEM and Ham's F12 medium supplemented with insulin (5 μg ml-1), transferrin (5 μg ml-1), selenium (5 ng ml-1), dexamethasone (40 ng ml-1), and 10% fetal bovine serum (v/v). Where indicated, AML12 cells were exposed to 10 μM SRT3025 in 1% DMSO (v/v). The cells were maintained in a humidified atmosphere with 5% CO2 at 37° C.
Substrate protein, PCSK9 was incubated with 2 μg of recombinant pCAF and 50 μM acetyl-CoA in 20 μL of acetylation buffer (250 mM Tris-HCl [pH9.0], 20 mM MgCl2, 250 mM NaCl, 2.5 mM DTT). Reaction mixtures were incubated at 37° C. for 1 hour. Reaction was stopped by freezing. […] The reactions were analyzed by western blotting using anti-PCSK9 antibody (Abcam) to verify loading and anti-acetyl lysine (Cell signalling) to verify acetylation.

O=C(Nc1ccccc1-c1cn2c(CN3CCNCC3)csc2n1)c1cnc2ccccc2n1 [SRT1720]
fluorescence caused by deacetylation of fluorogenic PCSK9 peptide [1]: increase in fluorescence

COCCCc1sc(-c2ccccc2)nc1C(=O)Nc1ccccc1-c1nc2cc(CN3CCCC3)cnc2s1 [SRT3025]
LDL-cholesterol [2]: reducing LDL-cholesterol
PCSK9 secretion [2]: reduction in PCSK9 secretion
atherosclerosis [2]: protects against atherosclerosis

acetyl-PCSK9: Recombinant PCSK9 pretreated with pCAF and acetyl-CoA
activity of PCSK9 (LDLR, PCSK9 expression normalized to b-actin) [3]: more active
